Numbers after ± are expanded uncertainties.
Settings: 101.33 kPa, Crystal, Small (less than 1 g) adiabatic calorimetry

O.O.O.O.O.O=S(=O)([O-])[O-].[Cu+2] [copper(II) sulfate pentahydrate]
molar entropy (5 K): 1.205 ± 0.092 J/K/mol
molar entropy (10 K): 1.688 ± 0.11 J/K/mol
molar entropy (15 K): 2.669 ± 0.12 J/K/mol
molar entropy (20 K): 4.429 ± 0.15 J/K/mol
molar entropy (25 K): 6.984 ± 0.19 J/K/mol
molar entropy (30 K): 10.25 ± 0.25 J/K/mol
molar entropy (35 K): 14.13 ± 0.29 J/K/mol
molar entropy (40 K): 18.55 ± 0.33 J/K/mol
molar entropy (45 K): 23.35 ± 0.38 J/K/mol
molar entropy (50 K): 28.39 ± 0.42 J/K/mol
molar entropy (55 K): 33.74 ± 0.46 J/K/mol
molar entropy (60 K): 39.25 ± 0.5 J/K/mol
molar entropy (65 K): 44.9 ± 0.54 J/K/mol
molar entropy (70 K): 50.64 ± 0.59 J/K/mol
molar entropy (75 K): 56.43 ± 0.63 J/K/mol
molar entropy (80 K): 62.26 ± 0.67 J/K/mol
molar entropy (85 K): 68.09 ± 0.71 J/K/mol
molar entropy (90 K): 73.92 ± 0.78 J/K/mol
molar entropy (95 K): 79.73 ± 0.8 J/K/mol
molar entropy (100 K): 85.52 ± 0.84 J/K/mol
molar entropy (110 K): 97.04 ± 0.91 J/K/mol
molar entropy (120 K): 108.5 ± 1 J/K/mol
molar entropy (130 K): 119.8 ± 1 J/K/mol
molar entropy (140 K): 131 ± 1.1 J/K/mol
molar entropy (150 K): 142.1 ± 1.1 J/K/mol
molar entropy (160 K): 153.1 ± 1.2 J/K/mol
molar entropy (170 K): 164 ± 1.3 J/K/mol
molar entropy (180 K): 174.7 ± 1.3 J/K/mol
molar entropy (190 K): 185.4 ± 1.3 J/K/mol
molar entropy (200 K): 196 ± 1.4 J/K/mol
molar entropy (210 K): 206.5 ± 1.5 J/K/mol
molar entropy (220 K): 216.9 ± 1.5 J/K/mol
molar entropy (230 K): 227.2 ± 1.6 J/K/mol
molar entropy (240 K): 237.5 ± 1.6 J/K/mol
molar entropy (250 K): 247.6 ± 1.6 J/K/mol
molar entropy (260 K): 257.7 ± 1.7 J/K/mol
molar entropy (270 K): 267.6 ± 1.7 J/K/mol
molar entropy (273.15 K): 270.7 ± 1.7 J/K/mol
molar entropy (280 K): 277.5 ± 1.8 J/K/mol
molar entropy (290 K): 287.3 ± 1.9 J/K/mol
molar entropy (298.15 K): 295.2 ± 1.9 J/K/mol
molar entropy (300 K): 297 ± 1.9 J/K/mol
molar entropy (310 K): 306.6 ± 1.9 J/K/mol
molar entropy (320 K): 316.1 ± 2 J/K/mol

— the NIST ThermoML archive (doi:10.1016/j.jct.2017.03.026)
